Like-named read-outs stand apart in the source and are kept apart here.
Columns and labels:
Rhizoctonia solani = test: Ex vivo mycelial growth, growth rate method; format: cell-based; conditions: 1 mg/mL
Phytophthora infestans [1] = format: cell-based; conditions: Phytophthora infestans (first line), 1 mg/mL
Valsa mali = test: Ex vivo mycelial growth, growth rate method; format: cell-based; conditions: 1 mg/mL
Phytophthora capsici = test: Ex vivo mycelial growth, growth rate method; format: cell-based
Mycosphaerlla melonis = test: Ex vivo mycelial growth, growth rate method; format: cell-based; conditions: 1 mg/mL
[2] = test system: F. oxysporum f. sp. vasinfectum; test: Ex vivo mycelial growth, growth rate method; format: cell-based; conditions: 1 mg/mL
C. gossypii = test: Ex vivo mycelial growth, growth rate method; format: cell-based; conditions: 1 mg/mL
F. graminearum = test: microbe, parasite or virus in culture; format: cell-based
Botrytis cinerea = test: Ex vivo mycelial growth, growth rate method; format: cell-based; conditions: 1 mg/mL
Exserohilum turcicum = test: Ex vivo mycelial growth, growth rate method; format: cell-based; conditions: 1 mg/mL
Sclerotinia sclerotiorum = test: Ex vivo mycelial growth, growth rate method; format: cell-based; conditions: 1 mg/mL
Pyricularia grisea = test: microbe, parasite or virus in culture; format: cell-based
Phytophthora infestans [3] = format: cell-based; conditions: Phytophthora infestans (second line), 1 mg/mL
zucchini = conditions: in vivo
Source text: The first application was started on August 26th, at the early onset of powdery mildew (the average disease index is 10.07). The instrument for application was Agrolex HD 400 Model hand operating knapsack sprayer, which employed a cone nozzle. Each agent was formulated into the desired concentrations according to the usage amount of the control clear water. Both sides of the leaves were sprayed evenly so that the leaves were wetted by the liquor without loss. […] Thereafter, applications were conducted every 7 days consecutively for 4 times. 10 days after the last application, the number of disease leaves at each grade of powdery mildew was investigated for the whole plant following the grading standard of 9 grades, to calculate the disease index and the control effect.

cucumber = test: Crop safety (phytotoxicity) in the cucumber field test; conditions: at the test doses (triazole control agents: 1500 fold liquid)
Fusarium graminearum = test: microbe, parasite or virus in culture; format: cell-based
Pythium aphanidermatum = test: Ex vivo mycelial growth, growth rate method; format: cell-based; conditions: 1 mg/mL
Colletotrichum capsici = test: Ex vivo mycelial growth, growth rate method; format: cell-based; conditions: 1 mg/mL
[4] = test system: Botryosphaeriana berengeriana; test: Ex vivo mycelial growth, growth rate method (line 'Botryosphaeriana berengeriana', r23); format: cell-based; conditions: Botryosphaeriana berengeriana (first line), 1 mg/mL
Coniella diplodiella = test: Ex vivo mycelial growth, growth rate method; format: cell-based; conditions: 1 mg/mL
[5] = test system: Gaeumannomyces graminis var. graminis and G. graminis var. tritici; test: Ex vivo mycelial growth, growth rate method; format: cell-based; conditions: 1 mg/mL
[6] = test system: Botryosphaeria berengeriana; test: Ex vivo mycelial growth, growth rate method (line 'Botryosphaeria berengeriana', r34); format: cell-based; conditions: Botryosphaeria berengeriana (second line), 1 mg/mL
Thanatephorus cucumeris = test: Ex vivo mycelial growth, growth rate method; format: cell-based; conditions: 1 mg/mL
F. verticillioide = test: Ex vivo mycelial growth, growth rate method; format: cell-based; conditions: 1 mg/mL
F. oxysporum f. sp. lini = test: Ex vivo mycelial growth, growth rate method; format: cell-based; conditions: 1 mg/mL
plant pathogenic fungi = test: organism not typed; format: cell-based; conditions: read-out: inhibition rate on mycelial growth, range over 9 fungi
[7] = test system: Blumeria graminis f. sp. trilici; test: In-vivo control of wheat powdery mildew in a greenhouse; design: species or system Blumeria graminis f. sp. trilici on winter wheat
zucchini powdery mildew = test: Field efficiency test on zucchini powdery mildew; format: in vivo; conditions: 0.50 mg/mL
E. cichoracearum = test: Field efficiency test on cucumber powdery mildew; conditions: 0.50 mg/mL (active ingredients)
Procedure: The first application was started on Jun. 15, 2018, and E. cichoracearum was inoculated on June 17th (the diseased leaves were harvested from the solar greenhouse near the military airfield at Xiaguanying town, Yuzhong County, moisturized in the greenhouse for 2 days, then shredded, and filtered over a gauze, the filtrate was sprayed onto both sides of the cucumber leaves with the cone nozzle of an electric sprayer for inoculation). The second, third and fourth applications were conducted on June 23rd, July 2nd, and July 9th respectively, the water consumptions of which were adjusted promptly according to the amount of water desired for spraying evenly onto both sides of the control leaves. 10 days after the fourth application, the number of disease leaves at each grade of powdery mildew was investigated following the grading standard of 9 grades, to calculate the disease index and the control effect.

[8] = test system: Erysiphe cucurbitacearum or Sphaerotheca cucurbitae; test: In-vivo control of zucchini powdery mildew in a greenhouse
Procedure: (2) In-Vivo Determination Method • Zucchini (Variety: Wuwei Xianglin extra-early 1st generation) were cultured in pots in a greenhouse, and inoculated with Erysiphe cucurbitacearum or Sphaerotheca cucurbitae at the stage of 3 to 4 leaves. […] Both sides of the leaves were sprayed evenly with a small hand-held sprayer so that the leaves were wetted by the liquor without loss. Applications were conducted every 7 days consecutively for 4 times. 10 days after the fourth application, the number of disease leaves at each grade of powdery mildew was investigated for the whole plant following the grading standard of 9 grades, to calculate the disease index and the control effect. The computational formula is as below: Disease index=[(Number of disease leaves at each grade×Corresponding grade value)/(Total number of investigated leaves×9)]×100; Control effect=(Disease index of the clear water control−Treated disease index)/Disease index of the clear water control×100.

E. polygoni = test: In-vivo control of marrow bean powdery mildew in a greenhouse
Procedure: (2) In-Vivo Determination Method • Marrow bean (Variety: Thailand Jiadouwang) were cultured in pots in a greenhouse, and inoculated with E. polygoni at the stage of 4 leaves. […] Both sides of the leaves were sprayed evenly with a small hand-held sprayer so that the leaves were wetted by the liquor without loss. Applications were conducted every 7 days consecutively for 4 times. 10 days after the fourth application, the number of disease leaves at each grade of powdery mildew was investigated for the whole plant following the grading standard of 9 grades, to calculate the disease index and the control effect.

[9] = test system: damping-off (P. aphanidermatum, P capsici); test: In-vivo control of tomato damping-off in a greenhouse (sick soil); conditions: 0.80 mg/mL, 200 mL liquor per pot
Procedure: (§1) (2) In-Vivo Determination Method • Sick soil of damping-off (P. aphanidermatum, P capsici) was collected from the fields of tomatoes, eggplants and peppers in solar greenhouse, and mixed evenly in equal proportion. Tomatoes (Variety: Song Tian Fen Yang Yang, 100 grains), eggplants (Variety: Lanza No. 2 F1 long eggplant, 100 grains), pepper (Longjiao 2 F1, 100 grains) were seeded quantitatively with the sick soil in pots (diameter: 15 cm) in a greenhouse, additionally with sterile vermiculite as the control (each 100 grains for determining the germination rate). […] The computational formula is as below: Mortality of Seedlings (%)=[number of survival seedlings in the seeded grains−number of seeded grains×(100%−germination rate)]/number of seeded grains×100; Control Effect (%)=(mortality of control seedlings−mortality of treated seedlings)/mortality of control seedlings×100.

[10] = test system: damping-off (P. aphanidermatum, P capsici); test: In-vivo control of pepper damping-off in a greenhouse (sick soil); conditions: 0.80 mg/mL, 200 mL liquor per pot
Procedure: as §1

[11] = mycelial growth, Phytophthora capsici, 1 mg/mL
[12] = F. graminearum (second line), 1 mg/mL
[13] = Fusarium graminearum, read-out: Inhibition Rate
[14] = Fusarium oxysporum, mycelial growth

COC(=O)C=Cc1ccc(OC)c(OC)c1 [Control Compound A, methyl 3,4-dimethoxy cinnamate, reference compound]
Average Diameter of the Colony (Rhizoctonia solani): 0.67 cm | Inhibition Rate (Rhizoctonia solani; mycelial growth): 91.52% | Average Diameter of the Colony (Phytophthora infestans [1]): 2.77 cm | Inhibition Rate (Phytophthora infestans [1]; mycelial growth): 64.94% | Average Diameter of the Colony (Valsa mali): 0.00 cm | Inhibition Rate (Valsa mali; mycelial growth): 100% | Average Diameter of the Colony (Phytophthora capsici; Phytophthora capsici, 1 mg/mL): 1.97 cm | Inhibition Rate (Phytophthora capsici; [11]): 75.06% | Average Diameter of the Colony (Mycosphaerlla melonis): 0.67 cm | Inhibition Rate (Mycosphaerlla melonis; mycelial growth): 91.52% | Average Diameter of the Colony [2]: 2.43 cm | Inhibition Rate ([2]; mycelial growth): 69.24% | Average Diameter of the Colony (C. gossypii): 3.83 cm | Inhibition Rate (C. gossypii; mycelial growth): 51.52% | Average Diameter of the Colony (F. graminearum; [12]): 4.90 cm | Inhibition Rate (F. graminearum; mycelial growth, F. graminearum (second line), 1 mg/mL): 37.98% | Average Diameter of the Colony (Botrytis cinerea): 2.27 cm | Inhibition Rate (Botrytis cinerea; mycelial growth): 71.27% | Average Diameter of the Colony (Exserohilum turcicum): 1.37 cm | Inhibition Rate (Exserohilum turcicum; mycelial growth): 82.66% | Average Diameter of the Colony (Sclerotinia sclerotiorum): 0.00 cm | Inhibition Rate (Sclerotinia sclerotiorum; mycelial growth): 100% | Average Diameter of the Colony (Pyricularia grisea; 1 mg/mL): 3.83 cm | Inhibition Rate (Pyricularia grisea; mycelial growth, 1 mg/mL): 51.52% | Average Diameter of the Colony (Phytophthora infestans [3]): 0.27 cm | Inhibition Rate (Phytophthora infestans [3]; mycelial growth): 96.58% | safety for zucchini (zucchini): safe for zucchini and cucumber | phytotoxicity / safety for cucumber (cucumber): safe for zucchini and cucumber

CCOC(=O)/C=C/c1ccc(OC)c(F)c1 [ethyl 3-(3′-fluoro-4′-methoxyphenyl) acrylate]
Average Diameter of the Colony (Rhizoctonia solani): 0.00 cm | inhibition at 1000 µg/mL (Rhizoctonia solani; mycelial growth): 100% | Average Diameter of the Colony (Phytophthora infestans [1]): 1.40 cm | Average Diameter of the Colony (Valsa mali): 0.85 cm | inhibition at 1000 µg/mL (Valsa mali; Cytospora mali, mycelial growth): 89.2% | Average Diameter of the Colony (Phytophthora capsici; Phytophthora capsici, 1 mg/mL): 1.26 cm | inhibition at 1000 µg/mL (Phytophthora capsici; [11]): 76.2% | antifungal activity on Phytophthora capsici compared with hymexazol (Phytophthora capsici; supplementary determination results): superior to that of the control agent, hymexazol | Average Diameter of the Colony (Fusarium graminearum; Fusarium graminearum (first line), 1 mg/mL): 3.26 cm | inhibition at 1000 µg/mL (Fusarium graminearum; [13]): 39.1% | Average Diameter of the Colony (Mycosphaerlla melonis): 0.37 cm | inhibition at 1000 µg/mL (Mycosphaerlla melonis; mycelial growth): 95.7% | Average Diameter of the Colony (Pythium aphanidermatum): 2.60 cm | inhibition at 1000 µg/mL (Pythium aphanidermatum; mycelial growth): 61.2% | Average Diameter of the Colony (Colletotrichum capsici): 0.11 cm | inhibition at 1000 µg/mL (Colletotrichum capsici; Colletotrichum truncatum, mycelial growth): 98.4% | Average Diameter of the Colony [4]: 1.19 cm | inhibition at 1000 µg/mL ([4]; mycelial growth): 79.1% | Average Diameter of the Colony (Coniella diplodiella): 0.00 cm | inhibition at 1000 µg/mL (Coniella diplodiella; mycelial growth): 100% | Average Diameter of the Colony [2]: 4.45 cm | inhibition at 1000 µg/mL [2, 14]: 38.5% | Average Diameter of the Colony [5]: 2.29 cm | inhibition at 1000 µg/mL ([5]; mycelial growth): 40% | Average Diameter of the Colony [6]: 1.72 cm | inhibition at 1000 µg/mL ([6]; mycelial growth): 74.7% | Average Diameter of the Colony (C. gossypii): 0.42 cm | inhibition at 1000 µg/mL (C. gossypii; Colletotrichum gossypii, mycelial growth): 92.2% | Average Diameter of the Colony (F. graminearum; [12]): 2.77 cm | inhibition at 1000 µg/mL (F. graminearum; [13]): 67.8% | Average Diameter of the Colony (Thanatephorus cucumeris): 2.05 cm | inhibition at 1000 µg/mL (Thanatephorus cucumeris; mycelial growth): 76.2% | Average Diameter of the Colony (Botrytis cinerea): 1.35 cm | inhibition at 1000 µg/mL (Botrytis cinerea; mycelial growth): 82% | Average Diameter of the Colony (Exserohilum turcicum): 0.10 cm | inhibition at 1000 µg/mL (Exserohilum turcicum; mycelial growth): 98.4% | Average Diameter of the Colony (F. verticillioide): 2.34 cm | inhibition at 1000 µg/mL (F. verticillioide; mycelial growth): 30.8% | Average Diameter of the Colony (Sclerotinia sclerotiorum): 2.58 cm | inhibition at 1000 µg/mL (Sclerotinia sclerotiorum; mycelial growth): 70% | Average Diameter of the Colony (Pyricularia grisea; 1 mg/mL): 7.70 cm | inhibition at 1000 µg/mL (Pyricularia grisea; read-out: Inhibition Rate): 14.4% | Average Diameter of the Colony (Phytophthora infestans [3]): 0.00 cm | Average Diameter of the Colony (F. oxysporum f. sp. lini): 7.20 cm | inhibition at 1000 µg/mL (F. oxysporum f. sp. lini; [14]): 20% | inhibition at 1000 µg/mL (plant pathogenic fungi): 82 to 100% | Control Effect ([7]; 0.143 mg/mL): 64.75% | Control Effect ([7]; 0.20 mg/mL): 67.60% | Control Effect (zucchini powdery mildew): 85.82% | control effect on cucumber powdery mildew (E. cichoracearum): 78.42% | Control Effect ([8]; 0.20 mg/mL): 52.71% | Control Effect ([8]; 0.333 mg/mL): 95.60% | Control Effect ([8]; 0.50 mg/mL): 97.11% | Control Effect (E. polygoni; 0.10 mg/mL): 77.26% | Control Effect (E. polygoni; 0.143 mg/mL): 91.16% | Control Effect (E. polygoni; 0.20 mg/mL): 94.51% | control effect on tomato damping-off [9]: 51.02% | control effect on pepper damping-off [10]: 56.47%

— US11533912B2, “Use of cinnamate compounds in the control of fungal diseases of crops” (Institute of Plant Protection, Gansu Academy of …, priority 2019, dated 2022)
